pIC50: −log10 of the molar value.
How the values were obtained:
BCL6 [1] = molecular target: T1, BCL6 (Homo sapiens (Human), UniProt P41182); assay: BCL6 TR-FRET assay (BCL6-Avitag-Biotin / BCoR-Cy5 peptide); format: binding; conditions: for pIC50: read-out: IC50
Method: Protein Synthesis. BCL6 protein was expressed by transforming Invitrogen One Shot cells with GS63525 pET24a-His-SUMO-TEV-BCLm-Avitag plasmid following manufacturer's instructions. In addition, biotin at a final concentration of 50 μM, and IPTG at a final concentration of 1 mM was added to the culture and incubated at room temperature shaking overnight.
Assay buffer A: 50 mM HEPES pH 7.5, 125 mM NaCl, 0.01% TritonX.
Assay buffer B (made fresh): buffer A+1 mM Glutathione (or 0.5 mM DTT).
Assay buffer C (made fresh): buffer B+0.03% BSA.
Black Proxy plates, 96 well.
15 μl final reaction volumes (BCoR-Cy5 100 nM, SA-Eu 2 nM, BCL6-avitag 2 nM).
[…] BCL6-Avitag-Biotin stock: made fresh by adding 2 μl of BCL6-Avitag-Biotin to 31.5 ml Buffer C.
1 mM BCoR-Cy5 peptide (LifeTein) stock in Dimethylformamide (DMF).
300 nM BCoR-Cy5 working stock: made fresh by adding 4.5 μl of the 1 mM BCoR-Cy5 peptide stock to 15 ml Buffer B.
10 μM Eu-Streptavidin (Lance Eu-W1024 Streptavidin, PerkinElmer) stock solution.
6 nM Eu-Streptavidin working stock: made fresh by adding 9 μl Eu-Streptavidin stock solution to 15 ml Buffer A.
Compounds were diluted to 10 mM. Twenty microliters of DMSO was aliquoted to each well of the microtiter plates. From the 10 mM compound stock, 8.7 ul was aliquoted to the 20 ul DMSO and 3-fold serial dilutions (12 pt 3-0.01 uM tritration plate, 96 well, 100% DMSO) performed. Five ul from the titration plate wells was aliquoted to 45 ul Buff C (Intermediate dilution plates, 10% DMSO).
Spot 1.5 μl compound titrations to 384-well plates in duplicate, and spot 3.5 μl [8.5 nM] BCL6-bio protein to each well. The plate was mix briefly, centrifuged, and incubated for 30 minutes at room temperature.
Mix 14 mls of BCoR-Cy5 [300 nM] and 14 mls [6 nM] Eu-Streptavidin. Spot 10 μl BCoR-Cy5/SA-Eu (1:1) mix to each well. The plates were incubated for 2 hours and then read on an Envision plate reader.

BCL6 [2] = molecular target: T1, BCL6; assay: Immunofluorescence high content imaging of BCL6 degradation in T47D cells; format: cell-based; conditions: T47D
Summary of the method: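 T47D, 3 d compound exposure, 11-pt 3-fold series, top 0.1 or 1 μM final. Fix 4% PFA, Triton permeabilize, anti-BCL6 primary overnight 4 °C, Alexa-488 secondary. High-content imaging 10×, 4 fields/well, top-hat smoothing.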

CNC(=O)COc1cc2cc(Nc3nc(N4CCC[C@H](COc5cccc6c5C(=O)N(C5CCC(=O)NC5=O)C6=O)C4)ncc3Cl)ccc2n(C)c1=O (stereo partly drawn) [compound 192, 2-((6-((5-chloro-2-((3S)-3-(((2-(2,6-dioxopiperidin-3-yl)-1,3-dioxoisoindolin-4-yl)oxy)methyl)piperidin-1-yl)pyrimidin-4-yl)amino)-1-methyl-2-oxo-1,2-dihydroquinolin-3-yl)oxy)-N-methylacetamide]
EC50 (BCL6 [1]): > 100 nM

Cn1c(=O)c(OC2COC2)cc2cc(Nc3nc(N4CCC(CN5CCN(c6ccc7c(c6)C(=O)N(C6CCC(=O)NC6=O)C7=O)CC5)CC4)ncc3Cl)ccc21 (stereo not shown) [compound 223, 5-(4-((1-(5-chloro-4-((1-methyl-3-(oxetan-3-yloxy)-2-oxo-1,2-dihydroquinolin-6-yl)amino)pyrimidin-2-yl)piperidin-4-yl)methyl)piperazin-1-yl)-2-(2,6-dioxopiperidin-3-yl)isoindoline-1,3-dione]
EC50 (BCL6 [1]): > 100 nM

CNC(=O)COc1cc2cc(Nc3nc(N4CCC(OC5CC6(CCN(c7cccc(C(=O)NC8CCC(=O)NC8=O)c7OC)CC6)C5)CC4)ncc3Cl)ccc2n(C(C)C)c1=O (stereo not shown) [compound 449, 3-[2-({1-[5-chloro-4-({3-[(methylcarbamoyl)methoxy]-2-oxo-1-(propan-2-yl)-1,2-dihydroquinolin-6-yl}amino)pyrimidin-2-yl]piperidin-4-yl}oxy)-7-azaspiro[3.5]nonan-7-yl]-N-(2,6-dioxopiperidin-3-yl)-2-methoxybenzamide]
Dmax (BCL6 [2]): 50 to 70%

CNC(=O)COc1cc2cc(Nc3nc(N4CCC(O[C@H]5C[C@@H](COc6ccc7c(c6)C(=O)N(C6CCC(=O)NC6=O)C7=O)N(C)C5)CC4)ncc3Cl)ccc2n(C(C)C)c1=O (stereo partly drawn) [compound 456, 2-[(6-{[5-chloro-2-(4-{[(3S,5S)-5-({[2-(2,6-dioxopiperidin-3-yl)-1,3-dioxo-2,3-dihydro-1H-isoindol-5-yl]oxy}methyl)-1-methylpyrrolidin-3-yl]oxy}piperidin-1-yl)pyrimidin-4-yl]amino}-2-oxo-1-(propan-2-yl)-1,2-dihydroquinolin-3-yl)oxy]-N-methylacetamide]
pIC50 (BCL6 [1]): ≤ 7.00

CNC(=O)COc1cc2cc(Nc3nc(N4CCC(O[C@H]5C[C@@H](Oc6ccc7c(c6)C(=O)N(C6CCC(=O)NC6=O)C7=O)CN(C)C5)CC4)ncc3Cl)ccc2n(C(C)C)c1=O (stereo partly drawn) [compound 457, 2-[(6-{[5-chloro-2-(4-{[(3S,5R)-5-{[2-(2,6-dioxopiperidin-3-yl)-1,3-dioxo-2,3-dihydro-1H-isoindol-5-yl]oxy}-1-methylpiperidin-3-yl]oxy}piperidin-1-yl)pyrimidin-4-yl]amino}-2-oxo-1-(propan-2-yl)-1,2-dihydroquinolin-3-yl)oxy]-N-methylacetamide]
pIC50 (BCL6 [1]): ≤ 7.00

CNC(=O)COc1cc2cc(Nc3nc(N4CCN(C(C)(C)C5CCN(c6ccc(OC)c(C(=O)NC7CCC(=O)NC7=O)c6F)CC5)CC4)ncc3Cl)ccc2n(C)c1=O (stereo not shown) [compound 468, 3-[4-(2-{4-[5-chloro-4-({1-methyl-3-[(methylcarbamoyl)methoxy]-2-oxo-1,2-dihydroquinolin-6-yl}amino)pyrimidin-2-yl]piperazin-1-yl}propan-2-yl)piperidin-1-yl]-N-(2,6-dioxopiperidin-3-yl)-2-fluoro-6-methoxybenzamide]
Dmax (BCL6 [2]): ≥ 70%

CNC(=O)COc1cc2cc(Nc3nc(N4CCC(C5(N6CCC(c7ccc8c(c7)C(=O)N(C7CCC(=O)NC7=O)C8=O)CC6)CC5)CC4)ncc3Cl)ccc2n(C)c1=O (stereo not shown) [compound 482, 2-{[6-({5-chloro-2-[4-(1-{4-[2-(2,6-dioxopiperidin-3-yl)-1,3-dioxo-2,3-dihydro-1H-isoindol-5-yl]piperidin-1-yl}cyclopropyl)piperidin-1-yl]pyrimidin-4-yl}amino)-1-methyl-2-oxo-1,2-dihydroquinolin-3-yl]oxy}-N-methylacetamide]
Dmax (BCL6 [2]): 50 to 70%

Source: patent US12310975B2, “Modulators of BCL6 proteolysis and associated methods of use” (Arvinas Operations, Inc., priority 2019, dated 2025)
